One may read the IC90 as the concentration needed for an effect of 90%. Low values mean greater potency, high ones weaker potency. The IC50 is the concentration that gives 50% inhibition.

In brackets after ≈: the same amount, converted by molar mass.

The values below come from ChEMBL document CHEMBL1149053, “beta-Carbolines from the blue-green alga Dichothrix baueriana” (J Nat Prod, 1994).

One assay concerns Human alphaherpesvirus 2. Briefly: Antiviral activity against HSV2 clinical isolate. The format is functional.
In another assay the test system is LoVo. Briefly: Cytotoxicity against human LoVo cells. The format is functional, cell-based.

As for `Cn1c2c(Cl)c(Cl)ccc2c2cc[nH]c(=O)c21` [BAUERINE C], the 90% effect concentration (IC90) in the assay with Human alphaherpesvirus 2 was found to be 2.5 µg/mL (≈ 9.36 µM). This molecule came in with an IC50 with LoVo of 0.03 µg/mL (≈ 0.112 µM).

Take `Cn1c2cnccc2c2ccc(Cl)c(Cl)c21` [BAUERINE B]: in the assay on Human alphaherpesvirus 2, the 90% effect level (IC90) was put at 3 µg/mL (≈ 11.9 µM). Further, it took 5 µg/mL (≈ 19.9 µM) to reach half-maximal inhibition in the assay on LoVo (IC50).

In turn, `Cn1c2cnccc2c2ccc(Cl)cc21` [BAUERINE A] came in with an IC90 in the assay with Human alphaherpesvirus 2 of 2 µg/mL (≈ 9.23 µM). The IC50 in the assay on LoVo turned out to be 3 µg/mL (≈ 13.8 µM).
